Results on twelve compounds are retold here after ChEMBL document CHEMBL3616397, “Voltage-Gated Sodium Channels: Structure, Function, Pharmacology, and Clinical Indications” (J Med Chem, 2015).

Series [1] is described as follows: Selectivity ratio of IC50 for rat NaV1.2 channel expressed in Xenopus laevis oocytes to IC50 for mouse NaV1.6 channel expressed in Xenopus laevis oocytes. The class given is cell-based.
The nature of series [2]: Selectivity ratio of IC50 for rat NaV1.3 channel expressed in Xenopus laevis oocytes to IC50 for mouse NaV1.6 channel expressed in Xenopus laevis oocytes. Format: cell-based.
The nature of series [3]: Selectivity ratio of IC50 for human NaV1.7 channel expressed in Xenopus laevis oocytes to IC50 for mouse NaV1.6 channel expressed in Xenopus laevis oocytes. The class given is cell-based.
Series [4] can be described thus: Selectivity ratio of IC50 for rat NaV1.4 channel expressed in Xenopus laevis oocytes to IC50 for mouse NaV1.6 channel expressed in Xenopus laevis oocytes. The class given is cell-based.
The target of series [5] is Sodium channel protein type 8 subunit alpha (Homo sapiens, UniProt Q9UQD0). The series is described as follows: Inhibition of human NaV1.6 channel by patch clamp electrophysiology assay.
For series [6], the target named is Sodium channel protein type 5 subunit alpha (Homo sapiens, UniProt Q14524). Kind of series: Inhibition of human NaV1.5 channel expressed in HEK293 cells by patch clamp electrophysiology assay. The class given is cell-based.
In series [7] the target is Sodium channel protein type 2 subunit alpha (Homo sapiens, UniProt Q99250). The series is described as follows: Inhibition of human NaV1.2 channel by patch clamp electrophysiology assay. On the technique in general: The patch-clamp technique gives a direct electrical read-out from membranes.
Series [8] deals with Sodium channel protein type 3 subunit alpha (Homo sapiens, UniProt Q9NY46). The series is described as follows: Inhibition of human TTX-sensitive NaV1.3 channel expressed in HEK293 cells by patch clamp electrophysiology assay. The class given is cell-based.
Series [9] has as its target Sodium channel protein type 10 subunit alpha (Homo sapiens, UniProt Q9Y5Y9). Kind of series: Inhibition of human NaV1.8 channel by patch clamp electrophysiology assay.
In series [10] the target is T1, Sodium channel protein type 9 subunit alpha (Homo sapiens, UniProt Q15858). The series is described as follows: Inhibition of human NaV1.7 channel expressed in HEK293 cells by patch clamp electrophysiology assay. The class given is cell-based.
Series [11] deals with Sodium channel protein type 1 subunit alpha (Homo sapiens, UniProt P35498). The series is described as follows: Inhibition of human NaV1.1 channel by patch clamp electrophysiology assay.
In series [12] the target is Sodium channel protein type 4 subunit alpha (Homo sapiens, UniProt P35499). Kind of series: Inhibition of human NaV1.4 channel by patch clamp electrophysiology assay.
Series [13] concerns the target T1, Sodium channel protein type 9 subunit alpha. Kind of series: Inhibition of human NaV1.7 channel expressed in HEK cells by patch clamp electrophysiology assay. The class given is cell-based, HEK293.
For series [14], the system named is Mus musculus. The series is described as follows: Toxicity in mouse administered 15 to 20 mins. Format: organism-based. The settings on record: in vivo.
Series [15] in a line: Toxicity in mouse. Format: organism-based. As to conditions: in vivo.
Series [16] concerns the target T1, Sodium channel protein type 9 subunit alpha. The series is described as follows: Inhibition of human NaV1.7 channel expressed in HEK293 cells treated for 120 secs by QPatch assay. Format: cell-based.
The nature of series [17]: Inhibition of mouse NaV1.2 channel by two-electrode voltage-clamp method.
In series [18] the target is Sodium channel protein type 8 subunit alpha (Mus musculus, UniProt Q9WTU3). Kind of series: Inhibition of mouse NaV1.6 channel by two-electrode voltage-clamp method. Background: Two-electrode voltage clamp is typically applied to oocytes expressing channels or transporters.
In series [19] the target is Sodium channel protein type 1 subunit alpha (Mus musculus, UniProt A2APX8). Kind of series: Inhibition of mouse NaV1.1 channel by two-electrode voltage-clamp method.
Series [20] deals with Sodium channel protein type 4 subunit alpha (Mus musculus, UniProt Q9ER60). The series is described as follows: Inhibition of mouse NaV1.4 channel by two-electrode voltage-clamp method.
Series [21] addresses Sodium channel protein type 9 subunit alpha (Rattus norvegicus, UniProt O08562). The series is described as follows: Inhibition of rat NaV1.7 channel by two-electrode voltage-clamp method.
Series [22] concerns the target Sodium channel protein type 2 subunit alpha (Rattus norvegicus, UniProt P04775). Kind of series: Inhibition of rat NaV1.2 channel.
The target of series [23] is T1, Sodium channel protein type 9 subunit alpha. Kind of series: Inhibition of human NaV1.7 channel by patch clamp electrophysiology assay.
For series [24], the target named is Sodium channel protein type 3 subunit alpha (Rattus norvegicus, UniProt P08104). Kind of series: Inhibition of rat NaV1.3 channel.
In series [25] the target is NaV1.5 (sodium channel protein type 5 subunit alpha) (Rattus norvegicus, UniProt P15389). Kind of series: Inhibition of rat NaV1.5 channel at 1 uM relative to control.
Series [26] addresses Sodium channel protein type 4 subunit alpha (Rattus norvegicus) (UniProt P15390). Kind of series: Inhibition of rat NaV1.4 channel at 1 uM relative to control.

T1 sequence (Q15858 whole entry): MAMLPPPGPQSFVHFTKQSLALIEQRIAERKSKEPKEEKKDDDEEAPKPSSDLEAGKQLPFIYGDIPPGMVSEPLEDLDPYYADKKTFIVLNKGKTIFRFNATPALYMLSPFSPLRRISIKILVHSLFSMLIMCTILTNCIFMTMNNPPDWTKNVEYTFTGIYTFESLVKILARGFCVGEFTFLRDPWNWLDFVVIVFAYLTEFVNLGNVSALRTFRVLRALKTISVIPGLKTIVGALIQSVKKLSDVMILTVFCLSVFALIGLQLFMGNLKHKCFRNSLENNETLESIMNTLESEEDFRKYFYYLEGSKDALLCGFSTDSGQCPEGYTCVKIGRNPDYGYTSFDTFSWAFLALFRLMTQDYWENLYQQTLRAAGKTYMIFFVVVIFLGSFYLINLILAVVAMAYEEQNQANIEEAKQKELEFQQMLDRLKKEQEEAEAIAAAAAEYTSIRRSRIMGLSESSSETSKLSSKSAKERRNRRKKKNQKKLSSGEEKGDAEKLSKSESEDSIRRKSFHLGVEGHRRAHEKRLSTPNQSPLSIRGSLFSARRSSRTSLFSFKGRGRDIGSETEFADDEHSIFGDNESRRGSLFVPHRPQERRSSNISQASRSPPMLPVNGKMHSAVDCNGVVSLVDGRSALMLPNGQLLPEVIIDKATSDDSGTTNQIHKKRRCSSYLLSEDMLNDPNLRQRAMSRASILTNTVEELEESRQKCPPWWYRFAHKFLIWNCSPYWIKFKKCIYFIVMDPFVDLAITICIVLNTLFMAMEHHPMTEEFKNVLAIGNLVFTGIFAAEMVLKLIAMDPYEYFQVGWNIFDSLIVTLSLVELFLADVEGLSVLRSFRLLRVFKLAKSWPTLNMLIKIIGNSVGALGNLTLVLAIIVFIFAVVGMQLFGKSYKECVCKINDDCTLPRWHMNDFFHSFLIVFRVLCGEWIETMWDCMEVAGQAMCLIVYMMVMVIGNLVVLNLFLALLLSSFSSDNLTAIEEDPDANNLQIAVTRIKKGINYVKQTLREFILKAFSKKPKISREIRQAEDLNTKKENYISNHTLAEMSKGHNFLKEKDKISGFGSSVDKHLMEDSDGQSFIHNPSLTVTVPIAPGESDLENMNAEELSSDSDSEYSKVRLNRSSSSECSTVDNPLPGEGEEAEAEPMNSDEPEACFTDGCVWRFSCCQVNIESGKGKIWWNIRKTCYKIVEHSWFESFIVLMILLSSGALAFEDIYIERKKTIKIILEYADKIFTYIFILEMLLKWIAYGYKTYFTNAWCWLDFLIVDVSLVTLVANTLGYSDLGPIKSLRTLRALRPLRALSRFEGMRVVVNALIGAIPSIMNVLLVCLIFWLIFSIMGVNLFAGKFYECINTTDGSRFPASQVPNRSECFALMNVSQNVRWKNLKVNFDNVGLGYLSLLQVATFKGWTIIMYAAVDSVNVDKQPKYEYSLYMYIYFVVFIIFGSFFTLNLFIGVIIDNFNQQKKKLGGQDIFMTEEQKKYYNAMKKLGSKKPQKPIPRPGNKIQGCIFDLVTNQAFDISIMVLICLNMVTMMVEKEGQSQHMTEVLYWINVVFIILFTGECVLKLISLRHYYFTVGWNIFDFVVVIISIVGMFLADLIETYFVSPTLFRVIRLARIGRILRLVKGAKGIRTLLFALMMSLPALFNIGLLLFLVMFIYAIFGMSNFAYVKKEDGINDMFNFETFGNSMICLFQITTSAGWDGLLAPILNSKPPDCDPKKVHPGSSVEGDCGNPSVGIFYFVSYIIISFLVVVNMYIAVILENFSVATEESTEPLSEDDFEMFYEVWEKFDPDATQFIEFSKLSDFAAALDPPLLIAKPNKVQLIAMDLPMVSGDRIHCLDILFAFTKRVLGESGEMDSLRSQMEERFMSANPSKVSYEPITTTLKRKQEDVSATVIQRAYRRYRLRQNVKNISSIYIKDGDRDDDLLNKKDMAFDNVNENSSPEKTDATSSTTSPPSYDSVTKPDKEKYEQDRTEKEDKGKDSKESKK
Sodium channel protein type 5 subunit alpha, sequence (Q14524 whole entry): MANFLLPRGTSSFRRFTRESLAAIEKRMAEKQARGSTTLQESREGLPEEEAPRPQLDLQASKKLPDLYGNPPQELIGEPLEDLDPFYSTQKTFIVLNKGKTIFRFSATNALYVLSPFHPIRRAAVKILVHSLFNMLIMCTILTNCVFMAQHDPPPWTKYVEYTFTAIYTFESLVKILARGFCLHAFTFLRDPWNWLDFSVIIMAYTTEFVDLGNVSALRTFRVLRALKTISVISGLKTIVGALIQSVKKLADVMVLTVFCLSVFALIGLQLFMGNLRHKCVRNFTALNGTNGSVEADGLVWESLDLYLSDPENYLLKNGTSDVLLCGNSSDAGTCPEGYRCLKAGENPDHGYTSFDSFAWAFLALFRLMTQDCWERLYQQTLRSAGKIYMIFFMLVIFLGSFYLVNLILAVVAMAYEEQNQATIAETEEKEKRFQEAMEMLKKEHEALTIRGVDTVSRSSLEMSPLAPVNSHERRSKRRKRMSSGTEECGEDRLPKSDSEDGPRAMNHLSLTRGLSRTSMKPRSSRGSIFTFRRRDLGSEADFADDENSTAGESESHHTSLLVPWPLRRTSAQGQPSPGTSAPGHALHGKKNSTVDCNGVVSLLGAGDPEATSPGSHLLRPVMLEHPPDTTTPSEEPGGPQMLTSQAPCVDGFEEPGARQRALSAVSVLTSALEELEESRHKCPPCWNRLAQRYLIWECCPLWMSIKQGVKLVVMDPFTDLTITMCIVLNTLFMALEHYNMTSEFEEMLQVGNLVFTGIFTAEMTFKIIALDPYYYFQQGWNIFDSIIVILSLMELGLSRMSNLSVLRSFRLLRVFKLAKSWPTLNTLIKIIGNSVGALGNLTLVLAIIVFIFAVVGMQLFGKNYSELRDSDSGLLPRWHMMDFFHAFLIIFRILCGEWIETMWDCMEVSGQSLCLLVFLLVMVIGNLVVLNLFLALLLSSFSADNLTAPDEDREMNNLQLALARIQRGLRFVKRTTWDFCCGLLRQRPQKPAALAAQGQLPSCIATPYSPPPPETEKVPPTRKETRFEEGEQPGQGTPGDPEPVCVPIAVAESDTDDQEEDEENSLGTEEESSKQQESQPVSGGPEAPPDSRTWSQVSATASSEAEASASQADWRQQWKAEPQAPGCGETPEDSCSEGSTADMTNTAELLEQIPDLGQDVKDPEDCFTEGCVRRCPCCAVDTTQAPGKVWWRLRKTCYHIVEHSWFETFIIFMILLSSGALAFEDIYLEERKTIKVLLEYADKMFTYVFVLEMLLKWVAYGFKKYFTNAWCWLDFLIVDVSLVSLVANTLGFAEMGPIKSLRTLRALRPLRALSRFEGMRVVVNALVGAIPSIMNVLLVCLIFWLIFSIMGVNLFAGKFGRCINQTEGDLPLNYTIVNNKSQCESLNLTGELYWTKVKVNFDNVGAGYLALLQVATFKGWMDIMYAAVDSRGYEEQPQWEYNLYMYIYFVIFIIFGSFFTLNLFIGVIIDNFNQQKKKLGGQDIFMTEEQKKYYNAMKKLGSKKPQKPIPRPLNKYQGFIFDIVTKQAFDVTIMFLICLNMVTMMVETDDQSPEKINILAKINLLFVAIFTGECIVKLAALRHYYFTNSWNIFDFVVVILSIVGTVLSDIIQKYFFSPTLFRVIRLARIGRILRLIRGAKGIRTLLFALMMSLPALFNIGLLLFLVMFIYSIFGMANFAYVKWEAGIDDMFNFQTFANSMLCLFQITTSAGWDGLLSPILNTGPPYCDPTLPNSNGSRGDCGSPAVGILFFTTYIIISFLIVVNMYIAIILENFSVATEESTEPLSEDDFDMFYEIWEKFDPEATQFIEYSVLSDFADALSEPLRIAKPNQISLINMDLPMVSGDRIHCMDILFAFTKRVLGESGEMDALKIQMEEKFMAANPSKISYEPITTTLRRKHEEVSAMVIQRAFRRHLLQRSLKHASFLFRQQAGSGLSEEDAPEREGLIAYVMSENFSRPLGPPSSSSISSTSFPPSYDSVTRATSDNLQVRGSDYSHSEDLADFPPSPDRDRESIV

With `N=C1N[C@H]2OC3C4(N1)C2[C@H]1O[C@]3(O)OC([C@H]4O)[C@]1(O)CO`, the Ratio IC50 in [1] is 161; in series [2] it was 44; in series [3], 163; in series [4], 127.
Usually IC50 stands for the midpoint of a concentration-inhibition curve. Read a low IC50 as inhibition by little substance. For `O=C(Nc1ccc(S(=O)(=O)Nc2nccs2)cc1)C(c1ccccc1)c1ccccc1`, the IC50 in [5] was more than 10000 nM; in series [6] it was more than 10000 nM; in series [7], 240 nM; in series [8] it was less than 20 nM; in series [9], more than 10000 nM; in [10], more than 10000 nM. The IC50 in series [11] was less than 20 nM; in [12], more than 10000 nM.
In [13], `CCCOc1ncccc1-c1cc(C(=O)NS(C)(=O)=O)ccc1Oc1ccc(Cl)cc1` had an IC50 of 14 nM.
Broadly, the LD50 is the dose expected to kill half of the subjects tested. A low value points to a more toxic substance. In the case of `CC1=CN=C(C)C1C(=O)O[C@@H](C)C1=CC[C@@]23OCCN(C)C[C@@]12C[C@@H](O)[C@]12O[C@@]4(O)CC[C@@]1(C)[C@H](CC=C32)C4` (stereo partly specified), the LD50 in series [14] came to 0.002 mg/kg.
The compound `COc1ccc(C(=O)O[C@H]2CC[C@@]3(C)[C@@H]4CC[C@H]5[C@]6(O)C[C@H](O)[C@@]7(O)[C@@H](CN8C[C@@H](C)CC[C@H]8[C@@]7(C)O)[C@]6(O)C[C@@]53O[C@]24O)cc1OC` [VERATRIDINE] gave an LD50 in [15] of 9 mg/kg.
Consider `O=S(=O)(Nc1ncns1)c1cc(F)c(OC[C@@H]2CNCC[C@H]2c2ccc(Cl)c(F)c2)cc1F`, for which the IC50 in [6] is more than 10000 nM.
On to `CN1CC[C@]2(CC[C@@H](c3cc(-c4cccc(OC(F)(F)F)c4)ccn3)N2)C1=O`, for which it took 251 nM to reach half-maximal inhibition in series [16] (IC50).
On the same count and under the same terms, as for `Cc1ccc(OCC(C)C)c(-c2cccc([C@@H]3CC[C@]4(CCN(C)C4=O)N3)c2F)c1`, the figure is 251 nM.
Turning to `Nc1nc2cc(-c3cc(Cl)ccc3Oc3cc(F)c(S(=O)(=O)Nc4ncns4)cc3F)ccc2[nH]1`, the IC50 was more than 10000 nM in series [6] and 30 nM in [10].
As usually defined, the Kd is the equilibrium constant for the complex coming apart. A higher Kd goes with lower affinity. On to `N=C(N)NCCC[C@@H]1NC(=O)[C@H](CO)NC(=O)[C@H](Cc2cnc[nH]2)NC(=O)[C@H](CC(=O)O)NC(=O)[C@H](CCCNC(=N)N)NC(=O)[C@@H]2CSSC[C@H](N)C(=O)N[C@H]3CSSC[C@H](NC1=O)C(=O)N[C@H](C(=O)O)CSSC[C@H](NC(=O)[C@H](CC(N)=O)NC3=O)C(=O)N[C@@H](CO)C(=O)N[C@@H](CO)C(=O)N[C@@H](CCCCN)C(=O)N[C@@H](Cc1c[nH]c3ccccc13)C(=O)N2`, for which the results for the Kd in series [17], in series [19] and in series [21] were 5 nM, 290 nM and 290 nM, respectively. Moreover, the IC50 in [18] was 240 nM; in series [20], 90 nM.
In the case of `Cc1cc(-c2ccc(C(F)(F)F)cc2)nc([C@@H]2CC[C@]3(CCN(C)C3=O)N2)n1`, it took 2000 nM to reach half-maximal inhibition in [16] (IC50).
In general, inhibition refers to the change of the read-out against control, counted positive when it falls. A high value points to strong suppression. As for `CC[C@H](C)[C@H](NC(=O)[C@H](CCC(=O)O)NC(=O)[C@H](Cc1ccc(O)cc1)NC(=O)[C@H](CCCCN)NC(=O)[C@H](CS)NC(=O)[C@H](Cc1c[nH]c2ccccc12)NC(=O)[C@H](CCCNC(=N)N)NC(=O)[C@H](Cc1cnc[nH]1)NC(=O)[C@H](CCCCN)NC(=O)[C@H](CCCNC(=N)N)NC(=O)[C@H](CO)NC(=O)[C@H](CS)NC(=O)[C@@H](NC(=O)[C@H](CC(C)C)NC(=O)[C@H](CC(N)=O)NC(=O)[C@H](CO)NC(=O)[C@H](CO)NC(=O)[C@H](CCCCN)NC(=O)[C@H](CS)NC(=O)[C@H](CS)NC(=O)[C@H](CCC(N)=O)NC(=O)[C@H](CC(=O)O)NC(=O)[C@H](CC(N)=O)NC(=O)[C@H](CO)NC(=O)[C@@H]1CCCN1C(=O)[C@H](CC(N)=O)NC(=O)[C@H](CS)NC(=O)CNC(=O)[C@H](CCCCN)NC(=O)CNC(=O)[C@H](Cc1ccccc1)NC(=O)CNC(=O)[C@H](CC(C)C)NC(=O)[C@H](CS)NC(=O)[C@@H](N)CCC(=O)O)C(C)C)C(N)=O`, the IC50 in [22] turned out to be 36 nM; in series [23] it was 21 nM; in series [24] it was 375 nM. Further, at 1 µM the inhibition in series [25] was 0%. Also, in series [26], the inhibition is 7.3%.
